This is an account of results in patent publication US12091425B2 (AMGEN INC., priority 2016, dated 2024).

A word on the IC50: it is the midpoint of a concentration-inhibition curve.

The test system of test [1] is OPM-2 human multiple myeloma cell line. Put plainly: Cell Viability Assay (OPM-2 10 FBS). The test is classed as cell-based. As to conditions: OPM-2 cells, 16 h, CellTiter-Glo. In a few lines:
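ATP-based luminescence (CellTiter-Glo) measured after a 16 h compound treatment of OPM-2 cells seeded at 3000 cells/well in 10% FBS medium. IC50 values derived by 4-parameter logistic fitting of serial dilutions.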

Test [2] deals with T1, Mcl-1/Bim interaction, recombinant human Mcl-1 (171-327) (Homo sapiens, UniProt Q07820).
T1 construct: made in house
Put plainly: Cell free Mcl-1: Bim Affinity Assay (Mcl-1 HTRF). The following applies: TR-FRET, 0.1 nM Mcl-1 (171-327), 0.05 nM biotin-Bim (51-76). The class given is binding. The method, boiled down: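 Compounds were mixed with the protein and a biotinylated Bim peptide spanning human residues 51-76. Plates were left overnight, then TR-FRET signal was measured. A four-parameter sigmoidal model applied to duplicate competition data gave IC50.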

T1 sequence (Q07820 171-327): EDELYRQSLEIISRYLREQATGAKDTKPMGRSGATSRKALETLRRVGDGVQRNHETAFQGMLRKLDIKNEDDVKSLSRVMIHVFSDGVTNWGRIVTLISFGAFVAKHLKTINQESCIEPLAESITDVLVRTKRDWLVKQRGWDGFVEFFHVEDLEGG

For the compound `CC1CC(N(C)C)CC(O)C2CCC2CN2CC3(CCCc4cc(Cl)ccc43)COc3ccc(cc32)C(=O)NS(=O)(=O)C1C` (single isomer, unassigned) [Example 248], the IC50 in test [1] (Homo sapiens, OPM-2, 16 h) worked out at 2160 nM; in test [2] it was 0.701 nM.
For `CC1CC(C)C(C)S(=O)(=O)NC(=O)c2ccc3c(c2)N(CC2CCC2C(O)C1)CC1(CCCc2cc(Cl)ccc21)CO3` (single isomer, unassigned) [Example 259], the IC50 in test [1] (Homo sapiens, OPM-2, 16 h) came to 23000 nM; in test [2], 44.4 nM.
As to `CC1CC(C)CS(=O)(=O)NC(=O)c2ccc3c(c2)N(CC2CCC2C(O)C1)CC1(CCCc2cc(Cl)ccc21)CO3` (single isomer, unassigned) [Example 270], the values for the IC50 in test [1] and in test [2] were 116 nM and 1.03 nM, respectively.
For `CC1CC(C)CS(=O)(=O)NC(=O)c2ccc3c(c2)N(CC2CCC2C(O)C1)CC1(CCCc2cc(Cl)ccc21)CO3` (single isomer, unassigned) [Example 272] the same measures were 1190 nM and 0.396 nM.
In the case of `O=C1NS(=O)(=O)[C@@H]2CCOC[C@H]2C/C=C/[C@H](O)[C@@H]2CC[C@H]2CN2C[C@@]3(CCCc4cc(Cl)ccc43)COc3ccc1cc32` (single isomer, unassigned) [Example 318], the IC50 in test [1] (Homo sapiens, OPM-2, 16 h) worked out at 430 nM; in test [2], 0.273 nM.
In the case of `CO[C@H]1/C=C/C[C@@H]2COCC[C@H]2S(=O)(=O)NC(=O)c2ccc3c(c2)N(C[C@@H]2CC[C@H]21)C[C@@]1(CCCc2cc(Cl)ccc21)CO3` (single isomer, unassigned) [Example 320], the IC50 in test [1] is 342 nM; in test [2], 0.329 nM.
Take `CO[C@H]1/C=C/C[C@H]2COCC[C@@H]2S(=O)(=O)NC(=O)c2ccc3c(c2)N(C[C@@H]2CC[C@H]21)C[C@@]1(CCCc2cc(Cl)ccc21)CO3` (single isomer, unassigned) [Example 321]: the half-maximal inhibitory concentration (IC50) in test [1] was 2180 nM; in test [2], 2.29 nM.
Turning to `COCCOC1C=CCC2COCCC2S(=O)(=O)NC(=O)c2ccc3c(c2)N(CC2CCC21)CC1(CCCc2cc(Cl)ccc21)CO3` (single isomer, unassigned) [Example 322], the IC50 was 123 nM in test [1] (Homo sapiens, OPM-2, 16 h) and 0.4 nM in test [2].
For `O=C1NS(=O)(=O)[C@@H]2CCC[C@@H]2C/C=C/[C@H](O)[C@@H]2CC[C@H]2CN2C[C@@]3(CCCc4cc(Cl)ccc43)COc3ccc1cc32` (single isomer, unassigned) [Example 323] the same measures were 2980 nM and 2.02 nM.
For the compound `O=C1NS(=O)(=O)[C@H]2CCC[C@H]2C/C=C/[C@H](O)[C@@H]2CC[C@H]2CN2C[C@@]3(CCCc4cc(Cl)ccc43)COc3ccc1cc32` (single isomer, unassigned) [Example 324], the IC50 in test [1] was 1940 nM; in test [2], 1.68 nM.
As for `O=C1NS(=O)(=O)[C@@H]2CCC[C@H]2C/C=C/[C@H](O)[C@@H]2CC[C@H]2CN2C[C@@]3(CCCc4cc(Cl)ccc43)COc3ccc1cc32` (single isomer, unassigned) [Example 325], the values for the IC50 in test [1] and in test [2] were 208 nM and 0.297 nM, respectively.
For `O=C1NS(=O)(=O)[C@@H]2CCC[C@H]2C/C=C/[C@H](O)[C@@H]2CC[C@H]2CN2C[C@@]3(CCCc4cc(Cl)ccc43)COc3ccc1cc32` (single isomer, unassigned) [Example 326], the IC50 turned out to be 20000 nM in test [1] and 5.51 nM in test [2].
For `Cn1cnc(CO[C@H]2/C=C/C[C@@H]3CCC[C@H]3S(=O)(=O)NC(=O)c3ccc4c(c3)N(C[C@@H]3CC[C@H]32)C[C@@]2(CCCc3cc(Cl)ccc32)CO4)n1` (single isomer, unassigned) [Example 328] the same measures were 428 nM and 0.44 nM.
For `Cn1cnc(CO[C@H]2/C=C/C[C@H]3CCC[C@@H]3S(=O)(=O)NC(=O)c3ccc4c(c3)N(C[C@@H]3CC[C@H]32)C[C@@]2(CCCc3cc(Cl)ccc32)CO4)n1` (single isomer, unassigned) [Example 329] the same measures were 3480 nM and 2.58 nM.
Consider `O=C1NS(=O)(=O)[C@@H]2CCCC[C@H]2C/C=C/[C@H](O)[C@@H]2CC[C@H]2CN2C[C@@]3(CCCc4cc(Cl)ccc43)COc3ccc1cc32` (single isomer, unassigned) [Example 331], for which the IC50 in test [1] (Homo sapiens, OPM-2, 16 h) turned out to be 284 nM; in test [2], 0.248 nM.
For `O=C1NS(=O)(=O)[C@H]2CCCC[C@@H]2C/C=C/[C@H](O)[C@@H]2CC[C@H]2CN2C[C@@]3(CCCc4cc(Cl)ccc43)COc3ccc1cc32` (single isomer, unassigned) [Example 332] the same measures were 5580 nM and 3.89 nM.
Regarding `O=C1NS(=O)(=O)[C@@H]2CCCC[C@H]2CCC[C@H](O)[C@@H]2CC[C@H]2CN2C[C@@]3(CCCc4cc(Cl)ccc43)COc3ccc1cc32` (single isomer, unassigned) [Example 333], the IC50 in test [1] worked out at 3450 nM; in test [2] it was 0.96 nM.
For `O=C1NS(=O)(=O)[C@H]2CCCC[C@@H]2CCC[C@H](O)[C@@H]2CC[C@H]2CN2C[C@@]3(CCCc4cc(Cl)ccc43)COc3ccc1cc32` (single isomer, unassigned) [Example 334] the same measures were 2660 nM and 6.92 nM.
Take `O=C1NS(=O)(=O)[C@@H]2C[C@H](O)C[C@H]2C/C=C/[C@H](O)[C@@H]2CC[C@H]2CN2C[C@@]3(CCCc4cc(Cl)ccc43)COc3ccc1cc32` (single isomer, unassigned) [Example 335]: the IC50 is 2120 nM in test [1] and 0.263 nM in test [2].
For `CO[C@@H]1C[C@H]2C/C=C/[C@H](OC)[C@@H]3CC[C@H]3CN3C[C@@]4(CCCc5cc(Cl)ccc54)COc4ccc(cc43)C(=O)NS(=O)(=O)[C@@H]2C1` (single isomer, unassigned) [Example 337] the same measures were 383 nM and 0.705 nM.
For `CC(=O)N1C[C@H]2C/C=C/[C@H](O)[C@@H]3CC[C@H]3CN3C[C@@]4(CCCc5cc(Cl)ccc54)COc4ccc(cc43)C(=O)NS(=O)(=O)[C@@H]2C1` (single isomer, unassigned) [Example 338] the same measures were 5620 nM and 0.241 nM.
For `CO[C@H]1/C=C/C[C@@H]2CN(C(C)=O)C[C@H]2S(=O)(=O)NC(=O)c2ccc3c(c2)N(C[C@@H]2CC[C@H]21)C[C@@]1(CCCc2cc(Cl)ccc21)CO3` (single isomer, unassigned) [Example 340] the same measures were 941 nM and 0.19 nM.
As for `O=C1NS(=O)(=O)N2CCOC[C@H]2C/C=C/[C@H](O)[C@@H]2CC[C@H]2CN2C[C@@]3(CCCc4cc(Cl)ccc43)COc3ccc1cc32` (single isomer, unassigned) [Example 343], the IC50 in test [1] (Homo sapiens, OPM-2, 16 h) is 6490 nM; in test [2], 7.27 nM.
For `O=C1NS(=O)(=O)N2CCOC[C@H]2C/C=C\[C@H](O)[C@@H]2CC[C@H]2CN2C[C@@]3(CCCc4cc(Cl)ccc43)COc3ccc1cc32` (single isomer, unassigned) [Example 344] the same measures were 912 nM and 2.11 nM.
In the case of `O=C1NS(=O)(=O)N2CCC[C@H]2C/C=C/[C@H](O)[C@@H]2CC[C@H]2CN2C[C@@]3(CCCc4cc(Cl)ccc43)COc3ccc1cc32` (single isomer, unassigned) [Example 345], the IC50 came out at 488 nM in test [1] (Homo sapiens, OPM-2, 16 h) and 0.877 nM in test [2].
For `CC(=O)O[C@H]1/C=C/C[C@@H]2CCCN2S(=O)(=O)NC(=O)c2ccc3c(c2)N(C[C@@H]2CC[C@H]21)C[C@@]1(CCCc2cc(Cl)ccc21)CO3` (single isomer, unassigned) [Example 346] the same measures were 2270 nM and 1.9 nM.
Take `CC(=O)O[C@H]1/C=C/C[C@H]2CCCN2S(=O)(=O)NC(=O)c2ccc3c(c2)N(C[C@@H]2CC[C@H]21)C[C@@]1(CCCc2cc(Cl)ccc21)CO3` (single isomer, unassigned) [Example 348]: the IC50 in test [1] (Homo sapiens, OPM-2, 16 h) is 3560 nM; in test [2] it was 6.86 nM.
`CNC(=O)C(OC)C1C=CC2CCC2CN2CC3(CCCc4cc(Cl)ccc43)COc3ccc(cc32)C(=O)NS(=O)(=O)C(C)C(C)C1` (single isomer, unassigned) [Example 361]: the IC50 was 509 nM in test [1] (Homo sapiens, OPM-2, 16 h) and 0.519 nM in test [2].
`CNC(=O)[C@@H](OC)[C@@H]1CC[C@@H]2CC[C@H]2CN2C[C@@]3(CCCc4cc(Cl)ccc43)COc3ccc(cc32)C(=O)NS(=O)(=O)[C@H](C)[C@@H](C)C1` (single isomer, unassigned) [Example 363]: the figures for the IC50 in test [1] and in test [2] were 483 nM and 0.793 nM, respectively.
For `O=C1NS(=O)(=O)[C@H]2CCCC(C2)[C@H](O)[C@@H]2CC[C@H]2CN2C[C@@]3(CCCc4cc(Cl)ccc43)COc3ccc1cc32` (single isomer, unassigned) [Example 364] the same measures were 30900 nM and 3.12 nM.
For `O=C1NS(=O)(=O)[C@H](Cc2nccs2)CC/C=C/[C@H](O)[C@@H]2CC[C@H]2CN2C[C@@]3(CCCc4cc(Cl)ccc43)COc3ccc1cc32` (single isomer, unassigned) [Example 373] the same measures were 404 nM and 0.731 nM.
In the case of `O=C1NS(=O)(=O)[C@H](Cc2nccs2)CC/C=C\[C@H](O)[C@@H]2CC[C@H]2CN2C[C@@]3(CCCc4cc(Cl)ccc43)COc3ccc1cc32` (single isomer, unassigned) [Example 374], the IC50 in test [1] came out at 2940 nM; in test [2], 2.86 nM.
For `COCCO[C@H]1/C=C/C[C@@H](C)CS(=O)(=O)NC(=O)c2ccc3c(c2)N(C[C@@H]2CC[C@H]21)C[C@@]1(CCCc2cc(Cl)ccc21)CO3` (single isomer, unassigned) [Example 375] the same measures were 5700 nM and 7.73 nM.
